{"source": "patent US20080292693A1", "about": "“COMPOSITION AND METHOD FOR TREATING DIGESTIVE SYSTEM DISORDERS” (priority 2007, published 2008)", "origin": "cited, not measured here", "key": {"Crohn's disease": {"tested_on": "Crohn's disease", "details": "double-blind clinical study, daily dose of 1,000 mg"}}}
{"smiles": "C=C(C)[C@H]1CC=C(C)CC1", "note": "[d-Limonene]", "values": [{"measurement": "symptoms of GERD", "setting": "GERD; double-blind clinical study, daily dose of 1,000 mg", "value": "significantly reduce"}, {"measurement": "responders free of GERD symptoms", "setting": "GERD; one GERD study, for up to six months without taking an additional dose", "value": "fifty"}, {"measurement": "symptoms of Crohn's disease", "setting": "Crohn's disease", "value": "significantly reduce"}]}
